{"source": "patent US20100279329A1", "about": "“METHOD FOR THE STABILISATION OF PURIFIED P-GLYCOPROTEIN” (UNIVERSITY OF BRIGHTON, priority 2007, published 2010)", "key": {"P-glycoprotein (P-gp) [1]": {"target": "T1, P-glycoprotein (P-gp) (Homo sapiens, UniProt P08183)", "T1 sequence (P08183 whole entry)": "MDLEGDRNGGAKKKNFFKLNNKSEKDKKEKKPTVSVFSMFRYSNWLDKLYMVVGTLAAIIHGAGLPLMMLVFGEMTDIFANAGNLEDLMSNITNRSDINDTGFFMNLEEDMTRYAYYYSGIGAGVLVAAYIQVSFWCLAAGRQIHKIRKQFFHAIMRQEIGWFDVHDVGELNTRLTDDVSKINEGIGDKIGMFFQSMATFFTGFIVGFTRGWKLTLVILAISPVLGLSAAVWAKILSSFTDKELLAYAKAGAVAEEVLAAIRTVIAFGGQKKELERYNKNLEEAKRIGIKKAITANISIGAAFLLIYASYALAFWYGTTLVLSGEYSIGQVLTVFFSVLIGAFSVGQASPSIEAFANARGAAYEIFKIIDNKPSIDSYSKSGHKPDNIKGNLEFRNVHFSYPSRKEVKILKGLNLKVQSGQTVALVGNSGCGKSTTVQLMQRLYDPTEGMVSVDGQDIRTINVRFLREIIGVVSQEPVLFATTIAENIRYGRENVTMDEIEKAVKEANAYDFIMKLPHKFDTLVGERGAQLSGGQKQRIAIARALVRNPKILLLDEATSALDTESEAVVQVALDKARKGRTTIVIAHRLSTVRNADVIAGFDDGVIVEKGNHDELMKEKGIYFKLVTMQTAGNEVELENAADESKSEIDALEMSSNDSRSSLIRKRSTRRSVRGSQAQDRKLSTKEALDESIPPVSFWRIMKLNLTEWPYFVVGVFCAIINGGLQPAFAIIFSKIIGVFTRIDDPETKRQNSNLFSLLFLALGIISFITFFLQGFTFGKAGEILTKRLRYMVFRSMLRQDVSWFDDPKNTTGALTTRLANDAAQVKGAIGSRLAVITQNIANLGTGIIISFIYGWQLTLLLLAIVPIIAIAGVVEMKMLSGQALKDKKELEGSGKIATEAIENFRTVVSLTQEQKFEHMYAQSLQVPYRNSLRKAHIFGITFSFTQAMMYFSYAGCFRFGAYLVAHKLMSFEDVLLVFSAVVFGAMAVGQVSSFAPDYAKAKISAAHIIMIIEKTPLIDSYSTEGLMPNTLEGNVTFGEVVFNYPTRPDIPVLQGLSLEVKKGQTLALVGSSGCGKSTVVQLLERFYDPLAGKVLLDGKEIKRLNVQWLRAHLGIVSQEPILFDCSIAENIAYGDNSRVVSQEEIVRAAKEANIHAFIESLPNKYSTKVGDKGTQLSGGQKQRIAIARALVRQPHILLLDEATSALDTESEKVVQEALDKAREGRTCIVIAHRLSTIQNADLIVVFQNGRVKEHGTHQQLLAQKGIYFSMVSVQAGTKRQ", "assay": "ATPase activity of P-gp proteoliposomes after freeze drying, rehydration and storage", "format": "biochemical", "set-up": "made in house; host or cells: Trichoplusia ni (High Five) insect cells, recombinant baculovirus", "conditions": "storage at 4° C. only", "procedure": "All freeze drying was carried out using a CHRIST Alpha 2-4 (MartinChrist, Germany) with the condenser temperature set to −80° C. Initial experiments were performed with product in micro-centrifuge tubes. Later experiments were performed using 2 ml glass freeze drying vials and freeze drying injection stoppers in conjunction with a stoppering system. This permitted vials to be sealed under vacuum, thus avoiding moisture uptake from the atmosphere when the chamber pressure was raised to atmospheric. In all experiments the shelf was pre-cooled to −80° C. to avoid melting of products whilst the chamber was being evacuated to the required pressure.\nIn order for freeze drying to be considered successful P-gp must have at least retained ATPase activity on rehydration immediately after freeze drying. On completion of the freeze drying cycle the solid product cake was rehydrated with distilled water. The product vial was vortexed to ensure the dried product was completely dissolved and rehydrated. […]\nP-gp proteoliposomes were freeze dried, sealed and stored at a range of temperatures (4° C., 20° C. and 37° C.) and ATPase activity was assessed at intervals up to 150 days. […]\nFollowing rehydration of P-gp proteoliposomes the ATPase activity was measured as described earlier. Activity was assessed following storage at 4° C., 20° C. and 37° C. at intervals up to 30 days."}, "P-glycoprotein (P-gp) [2]": {"target": "T1, P-glycoprotein (P-gp)", "assay": "ATPase activity, varying ATP concentration (Michaelis-Menten kinetics), colorimetric Pi release", "format": "biochemical", "set-up": "made in house; host or cells: Trichoplusia ni (High Five) insect cells, recombinant baculovirus", "conditions": "for Nicardipine stimulated Vmax / Effect of the disaccharide on nicardipine stimulated ATPase activity (Vmax): 30 μM nicardipine; for Nicardipine stimulated Vmax / Basal Vmax: glycerol purified P-gp, mean (SEM), n=4; for Basal Vmax / Effect of the disaccharide on basal ATPase activity: no drug; for Effect of the disaccharide on nicardipine stimulated ATPase activity (Vmax) / Effect of the disaccharide on basal ATPase activity: 10-300 mM disaccharide added to glycerol purified P-gp, two way ANOVA", "procedure": "A colorimetric assay (Chifflet et al., 1988) was used to determine ATP hydrolysis via release of inorganic phosphate. P-gp activity was expressed as μmol Pi/min/mg protein.\nA 0-20 nmol standard curve was set up using KH2PO4 as a source of Pi. Background Pi was measured using wells containing no protein or drug only ATP and ATPase buffer (50 mM Tris pH 7.4, 150 mM NH4Cl, 5 mM MgSO4, 0.02% (w/v) NaN3).\nThe plate was incubated for 20 minutes at 37° C. and the reaction quenched by rapid addition of 40 μl 12% (w/v) SDS to all wells. 100 μl of a 1:1 mixture of 6% (w/v) ascorbate in 1M HCl:1% (w/v) ammonium molybdate (prepared after the reaction had been quenched due to its sensitivity to light) was added to all wells and the plate was incubated for 5 minutes at room temperature. Finally, 100 μl 2% (w/v) sodium citrate/sodium metaarsentie/2% (v/v) acetic acid was added and the plate incubated at 37° C. for 15 minutes. The plate was then allowed to cool and the absorbance measured at a wavelength of 750 nm in a plate reader (SpectraMax 250, Molecular Devices/Multiskan Ascent). The amount of Pi released was calculated from the Pi standard curve and the ATPase activity of P-gp calculated.\nThe amount of protein (mg) in 20 μl was calculated from the protein concentration determined by BSA standard curve (see 1.2.8) allowing ATPase activity to be determined as μmol/min/mg protein. The Michaelis-Menten equation (Equation 1) was fitted to a graph of ATPase activity using non-linear least squares fit (GraphPad Prism 4.0).\nBoth varying ATP and varying drug assays were performed."}, "P-glycoprotein (P-gp) [3]": {"target": "T1, P-glycoprotein (P-gp)", "assay": "ATPase activity, varying drug concentration at constant ATP concentration (dose response)", "conditions": "300 mM disaccharide vs none; glycerol purified P-gp; two way ANOVA", "source_text": "The assay was set up, conducted and read in conditions identical to those described above. […] The equation for the general dose response curve is given below (Equation 2).\nEquation 2: The general dose response curve equation, where • V=rate of hydrolysis expressed as μmol/min/mg Pi, • Vmax=maximum rate of hydrolysis, • Vmin=minimum rate of hydrolysis, • [D]=concentration of drug, and • EC50=concentration of drug required to produce half maximum rate of hydrolysis.\nThe highest concentration was similar to that found in the reaction volume of an ATPase assay when a 20% (w/v) buffer was used (10 mM-300 mM). […] Both varying ATP and varying drug assays were performed."}, "[4]": {"target": "T2, plasma membrane H+-ATPase (Kluyveromyces lactis, UniProt P49380)", "T2 sequence (P49380 1-899)": "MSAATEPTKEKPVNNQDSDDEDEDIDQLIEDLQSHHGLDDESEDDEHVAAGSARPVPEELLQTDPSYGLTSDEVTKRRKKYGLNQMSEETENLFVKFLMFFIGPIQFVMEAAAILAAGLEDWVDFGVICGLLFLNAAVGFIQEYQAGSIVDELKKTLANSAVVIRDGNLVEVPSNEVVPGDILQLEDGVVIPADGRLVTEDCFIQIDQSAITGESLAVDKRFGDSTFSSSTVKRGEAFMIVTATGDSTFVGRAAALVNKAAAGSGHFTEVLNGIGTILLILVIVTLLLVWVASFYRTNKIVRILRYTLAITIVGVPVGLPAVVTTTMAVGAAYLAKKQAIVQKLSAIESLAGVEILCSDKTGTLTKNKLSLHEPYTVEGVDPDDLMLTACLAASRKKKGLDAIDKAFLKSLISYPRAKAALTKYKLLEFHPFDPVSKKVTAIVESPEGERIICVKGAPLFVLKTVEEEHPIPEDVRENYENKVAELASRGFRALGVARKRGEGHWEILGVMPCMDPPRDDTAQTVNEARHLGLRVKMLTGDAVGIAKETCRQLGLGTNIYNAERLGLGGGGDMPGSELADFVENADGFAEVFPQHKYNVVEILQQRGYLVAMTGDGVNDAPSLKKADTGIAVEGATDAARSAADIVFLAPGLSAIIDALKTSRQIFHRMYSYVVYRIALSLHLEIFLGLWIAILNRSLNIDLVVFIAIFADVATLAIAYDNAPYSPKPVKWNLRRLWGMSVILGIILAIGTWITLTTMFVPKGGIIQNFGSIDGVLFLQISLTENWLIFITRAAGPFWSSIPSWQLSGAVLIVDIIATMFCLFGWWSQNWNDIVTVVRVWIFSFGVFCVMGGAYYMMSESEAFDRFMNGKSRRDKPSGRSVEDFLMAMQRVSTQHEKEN", "conditions": "cited from earlier work"}}, "note": "“Also recorded” adds a separate entry of the source.", "data": [{"smiles": "OC[C@H]1O[C@H](O[C@H]2[C@H](O)[C@@H](O)[C@@H](O)O[C@@H]2CO)[C@H](O)[C@@H](O)[C@@H]1O", "note": "[Maltose, α-D-glucopyranosyl (1-4) α-D-glucopyranose]", "values": [{"measurement": "Time for which P-gp ATPase activity is preserved after freeze drying", "setting": "P-glycoprotein (P-gp) [1]", "value": "≤ 12", "unit": "days"}, {"measurement": "Nicardipine stimulated Vmax", "setting": "P-glycoprotein (P-gp) [2]; 10 mM maltose", "value": "1.7 (1.1) μmol/min/mg"}, {"measurement": "Basal Vmax", "setting": "P-glycoprotein (P-gp) [2]; 10 mM maltose", "value": "0.1 (0.4) μmol/min/mg"}, {"measurement": "Nicardipine stimulated Vmax", "setting": "P-glycoprotein (P-gp) [2]; 30 mM maltose", "value": "1.1 (0.6) μmol/min/mg"}, {"measurement": "Basal Vmax", "setting": "P-glycoprotein (P-gp) [2]; 30 mM maltose", "value": "0.1 (0.1) μmol/min/mg"}, {"measurement": "Nicardipine stimulated Vmax", "setting": "P-glycoprotein (P-gp) [2]; 100 mM maltose", "value": "1.0 (0.3) μmol/min/mg"}, {"measurement": "Basal Vmax", "setting": "P-glycoprotein (P-gp) [2]; 100 mM maltose", "value": "0.1 (0.6) μmol/min/mg"}, {"measurement": "Nicardipine stimulated Vmax", "setting": "P-glycoprotein (P-gp) [2]; 300 mM maltose", "value": "0.9 (0.4) μmol/min/mg"}, {"measurement": "Basal Vmax", "setting": "P-glycoprotein (P-gp) [2]; 300 mM maltose", "value": "0.1 (0.2) μmol/min/mg"}, {"measurement": "Effect of the disaccharide on nicardipine stimulated ATPase activity (Vmax)", "setting": "P-glycoprotein (P-gp) [2]", "value": "no significant affect; also recorded: did not alter; also recorded: does not effect; also recorded: no significant difference"}, {"measurement": "Effect of the disaccharide on basal ATPase activity", "setting": "P-glycoprotein (P-gp) [2]", "value": "remained unchanged; also recorded: no significant difference"}]}, {"smiles": "OC[C@H]1O[C@H](O[C@H]2O[C@H](CO)[C@@H](O)[C@H](O)[C@H]2O)[C@H](O)[C@@H](O)[C@@H]1O", "note": "[Trehalose, α-D-glucopyranosyl (1-1) α-D-glucopyranose]", "values": [{"measurement": "Effect of the disaccharide on potency of nicardipine to stimulate ATPase activity", "setting": "P-glycoprotein (P-gp) [3]", "value": "did not affect; also recorded: unaffected; also recorded: no significant difference"}, {"measurement": "Nicardipine stimulated Vmax", "setting": "P-glycoprotein (P-gp) [2]; 10 mM trehalose", "value": "4.7 (1.6) μmol/min/mg"}, {"measurement": "Basal Vmax", "setting": "P-glycoprotein (P-gp) [2]; 10 mM trehalose", "value": "0.86 (0.67) μmol/min/mg"}, {"measurement": "Nicardipine stimulated Vmax", "setting": "P-glycoprotein (P-gp) [2]; 30 mM trehalose", "value": "5.6 (2.3) μmol/min/mg"}, {"measurement": "Basal Vmax", "setting": "P-glycoprotein (P-gp) [2]; 30 mM trehalose", "value": "0.63 (0.4) μmol/min/mg"}, {"measurement": "Nicardipine stimulated Vmax", "setting": "P-glycoprotein (P-gp) [2]; 100 mM trehalose", "value": "4.9 (2.1) μmol/min/mg"}, {"measurement": "Basal Vmax", "setting": "P-glycoprotein (P-gp) [2]; 100 mM trehalose", "value": "1.0 (0.86) μmol/min/mg"}, {"measurement": "Nicardipine stimulated Vmax", "setting": "P-glycoprotein (P-gp) [2]; 300 mM trehalose", "value": "3.7 (1.3) μmol/min/mg"}, {"measurement": "Basal Vmax", "setting": "P-glycoprotein (P-gp) [2]; 300 mM trehalose", "value": "0.7 (0.54) μmol/min/mg"}, {"measurement": "Effect of the disaccharide on nicardipine stimulated ATPase activity (Vmax)", "setting": "P-glycoprotein (P-gp) [2]", "value": "did not affect; also recorded: does not affect; also recorded: no significant difference"}, {"measurement": "Effect of the disaccharide on basal ATPase activity", "setting": "P-glycoprotein (P-gp) [2]", "value": "does not affect; also recorded: no significant difference"}, {"measurement": "Effect on ATPase activity of plasma membrane H+-ATPase", "setting": "[4]; 0.6 M to 0.8M trehalose, 20° C.", "value": "inhibit"}, {"measurement": "Reduction in Vmax of plasma membrane H+-ATPase", "setting": "[4]; high trehalose concentrations, 40° C.", "value": "negligible"}]}]}
